Experimental data from patent US20150038435A1, “N-TERMINALLY MODIFIED OLIGOPEPTIDES AND USES THEREOF” (Novo Nordisk A/S, priority 2012, published 2015).
Starred links: 1 amine or outer side, 2 acyl side, 3 side chain; linkers in the order of their positions; H or OH if unused. Non-standard residues stand in square brackets, D forms with d. *: point of attachment. γGlu = O=C(O)[C@H](CCC(=O)[*:2])N[*:1]; C12 diacid = O=C(O)CCCCCCCCCCC(=O)*; Lauroyl = CCCCCCCCCCCC(=O)*

Columns and labels:
Trypsin = assay: Inhibition of enzymatic degradation of a model GLP-1 (FRET substrate) by trypsin; type: biochemical; settings: for EC50: read-out: EC50 Trypsin (0.001 mg/ml), 0.001 mg/ml trypsin, 37° C.
Procedure, shortened: (§1)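 MCA/DNP-labelled model GLP-1 FRET substrate (10 μl of 100 μM stock) in Dulbecco's PBS at 37° C with varying acylated peptide; fluorescence (ex 320/em 405 nm) read every minute for ≥30 min. Initial slopes from linear regression, duplicates averaged; EC50 by sigmoidal logistic fit of slope vs concentration.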

[1] = Hydrophobicity: retention time during reverse phase HPLC; type: physicochemical; settings: Acquity CSH C18; pH 7.2 buffer/CH3CN gradient; 40° C.
Description: The retention time (RT) during reverse phase HPLC was taken as a measure of hydrophobicity of an N-terminally modified peptide or oligopeptide of the invention, where the connection is: The longer the RT, the more hydrophobic N-terminally modified peptide or oligopeptide. The following running conditions were applied during HPLC analysis:
Buffer B: 70% (v/v) aq. CH3CN

Chymotrypsin = assay: Inhibition of enzymatic degradation of a model GLP-1 (FRET substrate) by chymotrypsin; type: biochemical; settings: for EC50: read-out: EC50 Chymotrypsin (0.001 mg/ml), 0.001 mg/ml chymotrypsin, 37° C., ± standard error if at least 3 measurements
Procedure, shortened: as §1

[2] = compound 0.1 mM, buffer containing 8% DMSO

Row | Substance | Slope of the initial increase in fluorescence obtained during incubation with 0.001 mg/ml Trypsin (Trypsin; [2]) | RT (retention time during reverse phase HPLC as a measure of hydrophobicity) [1] | Slope of the initial increase in fluorescence obtained during incubation with 0.001 mg/ml Chymotrypsin (Chymotrypsin; [2]) | EC50 (Trypsin) | EC50 (Chymotrypsin) | Slope of the initial increase in fluorescence obtained during incubation with 0.001 mg/ml Trypsin (Trypsin; compound 1 mM) | Slope of the initial increase in fluorescence obtained during incubation with 0.001 mg/ml Chymotrypsin (Chymotrypsin; compound 1 mM)
1 | N-dodecanoyl-Ala-Tyr-Pro-Tyr-OH (Lauroyl-AYPY-OH; SMILES CCCCCCCCCCCC(=O)N[C@@H](C)C(=O)N[C@@H](Cc1ccc(O)cc1)C(=O)N1CCC[C@H]1C(=O)N[C@@H](Cc1ccc(O)cc1)C(=O)O) [Example 89] | 1.86 | 6.23 min | 0.80 | – | – | – | –
2 | N-tetradecanoyl-βAla-βAla-βAla-Pro-Phe-OH [Example 138] | – | 8.16 min | – | 39 µM | 154 µM | – | –
3 | N-dodecanoyl-Gln-Pro-Tyr-OH [Example 116] | 1.75 | 5.08 min | 1.48 | – | – | – | –
4 | N-tetradecanoyl-βAla-βAla-Pro-Phe-OH [Example 136] | – | 8.73 min | – | 13 µM | 106 µM | – | –
5 | N-dodecanoyl-Leu-Pro-Tyr-OH [Example 121] | 1.35 | 7.77 min | 0.34 | – | – | – | –
6 | N-dodecanoyl-Ala-Leu-Pro-Tyr-OH (Lauroyl-ALPY-OH; SMILES CCCCCCCCCCCC(=O)N[C@@H](C)C(=O)N[C@@H](CC(C)C)C(=O)N1CCC[C@H]1C(=O)N[C@@H](Cc1ccc(O)cc1)C(=O)O) [Example 81] | 1.90 | 7.38 min | 0.40 | – | – | – | –
7 | N-dodecanoyl-Ala-His-Pro-Tyr-OH (Lauroyl-AHPY-OH; SMILES CCCCCCCCCCCC(=O)N[C@@H](C)C(=O)N[C@@H](Cc1c[nH]cn1)C(=O)N1CCC[C@H]1C(=O)N[C@@H](Cc1ccc(O)cc1)C(=O)O) [Example 79] | 1.93 | 5.29 min | 0.51 | – | – | – | –
8 | N-dodecanoyl-Ala-Ala-Glu-Tyr-OH (Lauroyl-AAEY-OH; SMILES CCCCCCCCCCCC(=O)N[C@@H](C)C(=O)N[C@@H](C)C(=O)N[C@@H](CCC(=O)O)C(=O)N[C@@H](Cc1ccc(O)cc1)C(=O)O) [Example 62] | 1.66 | 4.36 min | 1.35 | – | – | – | –
9 | N-dodecanoyl-Glu-Ala-Ala-Pro-Tyr-OH [Example 104] | 1.63 | 3.83 min | 0.16 | – | – | – | –
10 | N-dodecanoyl-γGlu-OEG-OEG-Arg-OH [Example 132] | – | 3.62 min | – | – | – | 0.26 | 0.35
11 | N-dodecanoyl-Ala-Gln-Pro-Tyr-OH (Lauroyl-AQPY-OH; SMILES CCCCCCCCCCCC(=O)N[C@@H](C)C(=O)N[C@@H](CCC(N)=O)C(=O)N1CCC[C@H]1C(=O)N[C@@H](Cc1ccc(O)cc1)C(=O)O) [Example 76] | 2.22 | 5.26 min | 0.85 | – | – | – | –
12 | N-dodecanoyl-γGlu-Ala-Pro-Tyr-OH (Lauroyl-[γGlu]APY-OH; SMILES CCCCCCCCCCCC(=O)N[C@@H](CCC(=O)N[C@@H](C)C(=O)N1CCC[C@H]1C(=O)N[C@@H](Cc1ccc(O)cc1)C(=O)O)C(=O)O) [Example 98] | 1.53 | 3.79 min | 1.39 | – | – | – | –
13 | N-dodecanoyl-Ile-Pro-Tyr-OH [Example 120] | 1.08 | 7.82 min | 0.17 | – | – | – | –
14 | N-tetradecanoyl-Ala-Ala-Pro-Phe-OH [Example 3] | – | 9.74 min | – | 74 µM | 57 ± 2 µM | 0.37 | 0.01
15 | N-dodecanoyl-Ala-Ala-Asn-Tyr-OH (Lauroyl-AANY-OH; SMILES CCCCCCCCCCCC(=O)N[C@@H](C)C(=O)N[C@@H](C)C(=O)N[C@@H](CC(N)=O)C(=O)N[C@@H](Cc1ccc(O)cc1)C(=O)O) [Example 59] | 1.72 | 7.88 min | 1.79 | – | – | – | –
16 | N-dodecanoyl-Phe-Pro-Tyr-OH [Example 124] | 0.63 | 8.19 min | 0.12 | – | – | – | –
17 | N-dodecanoyl-OEG-OEG-Phe-OH [Example 128] | – | 3.08 min | – | – | – | 0.35 | 0.86
18 | N-dodecanoyl-Lys-Pro-Tyr-OH [Example 122] | 1.68 | 5.17 min | 0.26 | – | – | – | –
19 | N-dodecanoyl-Glu-Pro-Tyr-OH [Example 117] | 1.66 | 3.91 min | 1.82 | – | – | – | –
20 | N-dodecanoyl-Asp-Pro-Tyr-OH [Example 115] | 1.73 | 3.91 min | 2.04 | – | – | – | –
21 | N-dodecanoyl-His-Pro-Tyr-OH [Example 119] | 2.13 | 5.12 min | 0.70 | – | – | – | –
22 | N-dodecanoyl-Leu-Ala-Ala-Pro-Tyr-OH [Example 42] | 0.89 | 7.87 min | 0.00 | – | – | – | –
23 | N-dodecandioyl-Ala-Ala-Pro-Phe-OH ({C12 diacid}-AAPF-OH) [Example 15] | – | 3.13 min | – | – | – | 4.17 | 2.07
24 | N-dodecanoyl-Ala-Phe-Pro-Tyr-OH (Lauroyl-AFPY-OH; SMILES CCCCCCCCCCCC(=O)N[C@@H](C)C(=O)N[C@@H](Cc1ccccc1)C(=O)N1CCC[C@H]1C(=O)N[C@@H](Cc1ccc(O)cc1)C(=O)O) [Example 84] | 1.43 | 7.77 min | 0.14 | – | – | – | –
25 | N-dodecanoyl-γGlu-OEG-OEG-DArg-OH [Example 133] | – | 3.62 min | – | – | – | 0.09 | 0.27
26 | N-dodecanoyl-Ala-Ile-Pro-Tyr-OH (Lauroyl-AIPY-OH; SMILES CCCCCCCCCCCC(=O)N[C@@H](C)C(=O)N[C@H](C(=O)N1CCC[C@H]1C(=O)N[C@@H](Cc1ccc(O)cc1)C(=O)O)[C@@H](C)CC) [Example 80] | 1.83 | 7.24 min | 0.10 | – | – | – | –
